Results: US20020045242A1, “Culture medium for culturing Lactobacillus clearans, and method for preserving said strain” (priority 1999, published 2002)
Like-named read-outs stand apart in the source and are kept apart here.

B1: Ovalbumin: protein-based preservative (protein, UniProt P01012 2-386, looked up)
Ovalbumin: GSIGAASMEFCFDVFKELKVHHANENIFYCPIAIMSALAMVYLGAKDSTRTQINKVVRFDKLPGFGDSIEAQCGTSVNVHSSLRDILNQITKPNDVYSFSLASRLYAEERYPILPEYLQCVKELYRGGLEPINFQTAADQARELINSWVESQTNGIIRNVLQPSSVDSQTAMVLVNAIVFKGLWEKAFKDEDTQAMPFRVTEQESKPVQMMYQIGLFRVASMASEKMKILELPFASGTMSMLVLLPDEVSGLEQLESIINFEKLTEWTSSNVMEERKIKVYLPRMKMEEKYNLTSVLMAMGITDVFSSSANLSGISSAESLKISQAVHAAHAEINEAGREVVGSAEAGVDAASVSEEFRADHPFLFCIKHIATNAVLFFGRCVSP

Assays:
Lactobacillus clearans [1] = test: Viability of Lactobacillus clearans during lyophilization with preservatives; format: cell-based; conditions: protein-amino acid-based preservative used alone; viability class
Protocol: (§1) Here, alfalfa juice and clover juice refer to liquids which are made by adding 10-fold water to alfalfa grass or clover grass to make a juice, these being used as alfalfa juice or clover juice, respectively. The amounts in which the preservatives are added are expressed in terms of the weight ratio of the preservative relative to the weight of the viable cells. […] The viability of Lactobacillus clearans is expressed as a percentage, where 100% is the viable cell count immediately after lyophilization. The viability during lyophilization is indicated as concentric circles when the viability is more than 90%, as two concentric circles to one circle when the rate is 80 to 90%, as one circle when the rate is 60 to 80%, as a square when the rate is 40 to 60%, as a triangle when the rate is 20 to 40%, and as an “x” when the rate is less than 20%.
(§2) Here, the amounts in which the preservatives were added are expressed as the weight ratio of the preservative relative to the viable cell weight. […] The viability of Lactobacillus clearans during lyophilization is indicated as two concentric circles when the viability is more than 90%, as two concentric circles to one circle when the rate is 80 to 90%, as one circle when the rate is 60 to 80%, as a square when the rate is 40 to 60%, as a triangle when the rate is 20 to 40%, and as an “x” when the rate is less than 20%.

Lactobacillus clearans [2] = test: Viability of Lactobacillus clearans during storage with preservatives
Protocol: as §1, §2

Lactobacillus clearans [3] = test: Changes in titer of Lactobacillus clearans during storage with preservatives; format: cell-based; conditions: protein-amino acid-based preservative
Protocol: as §1, §2

Lactobacillus clearans [4] = test: Effect of substances added during subculture on titer of Lactobacillus clearans; format: cell-based; conditions: added to medium during subculture
Description: The most important amino acids constituting the bacterial cells or enzymes were studied by type for their effects on Lactobacillus clearans.
We looked for substances capable of such enhancement or potentiation and conducted extensive- study.

[5] = Lactobacillus clearans, 3 months
[6] = Lactobacillus clearans, 6 months
[7] = Lactobacillus clearans, 12 months

Molecule	Results during lyophilization (Lactobacillus clearans [1])	Changes over time during storage, Viability (%) 3 months (Lactobacillus clearans [2]; [5]) [%]	Changes over time during storage, Viability (%) 6 months (Lactobacillus clearans [2]; [6]) [%]	Changes over time during storage, Viability (%) 12 months (Lactobacillus clearans [2]; [7]) [%]	Changes over time during storage, Changes in titer (Lactobacillus clearans [3])	effect on titer of Lactobacillus clearans (Lactobacillus clearans [4])	Changes over time during storage, Viability (%) 3 months (Lactobacillus clearans [2]; protein-amino acid-based preservative, 100% = viable cell count immediately after lyophilization, 3 months) [%]	Changes over time during storage, Viability (%) 6 months (Lactobacillus clearans [2]; protein-amino acid-based preservative, 100% = viable cell count immediately after lyophilization, 6 months) [%]	Changes over time during storage, Viability (%) 12 months (Lactobacillus clearans [2]; protein-amino acid-based preservative, 100% = viable cell count immediately after lyophilization, 12 months) [%]	Changes over time during storage, Viability (%) 3 months (Lactobacillus clearans [2]) [%]	Changes over time during storage, Viability (%) 6 months (Lactobacillus clearans [2]) [%]	Changes over time during storage, Viability (%) 12 months (Lactobacillus clearans [2]) [%]
N[C@@H](CS)C(=O)O [Cysteine]	◯ (one circle when the rate is 60 to 80%)	65	45	30	+	extremely effective	–	–	–	–	–	–
N[C@@H](CSSC[C@H](N)C(=O)O)C(=O)O [Cystine]	◯ (one circle when the rate is 60 to 80%)	70	50	35	+	extremely effective	–	–	–	–	–	–
NCCCC[C@H](N)C(=O)O [Lysine]	Δ (a triangle when the rate is 20 to 40%)	–	–	–	±	extremely effective	30	15	5	–	–	–
CSCC[C@H](N)C(=O)O [Methionine]	◯ (one circle when the rate is 60 to 80%)	65	45	30	+	extremely effective	–	–	–	–	–	–
NCCS(=O)(=O)O [Taurine]	◯ (one circle when the rate is 60 to 80%)	70	50	35	+	extremely effective	–	–	–	–	–	–
B1	◯ (one circle when the rate is 60 to 80%)	–	–	–	+	–	–	–	–	70	50	30
